T1: Ta RhaD (rhamnose dehydrogenase) (Thermoplasma acidophilum, UniProt Q9HK58)
T1 sequence (Q9HK58 1-254): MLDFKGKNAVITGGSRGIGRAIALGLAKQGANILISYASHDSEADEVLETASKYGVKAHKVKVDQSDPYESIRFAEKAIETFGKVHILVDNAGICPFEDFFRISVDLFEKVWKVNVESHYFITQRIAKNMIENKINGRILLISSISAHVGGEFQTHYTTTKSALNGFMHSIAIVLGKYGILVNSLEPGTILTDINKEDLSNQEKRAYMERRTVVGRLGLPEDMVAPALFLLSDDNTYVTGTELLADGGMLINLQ

B1: Thermoplasma acidophilum thermosome α subunit D94E, with intraloop His6-tag (natural protein)
chain: MMTGQVPILVLKEGTQREQGKNAQRNNIEAAKAIADAVRTTLGPKGMDKMLVDSIGDIIISNDGATILKEMDVEHPTAKMIVEVSKAQDTAVGEGTTTAVVLSGELLKQAETLLDQGVHPTVISNGYRLAVNEARKIIDEIAEKSTDDATLRKIALTALSGKNTGLSNDFLADLVVKAVNAVAEVRDGKTIVDTANIKVDKKNGGSVNDTQFISGIVIDKEKVHSKMPDVVKNAKIALIDSALEIKKTEIEAKVQISDPSKIQDFLNQETNTFKQMVEKIKKSGANVVLCQKGIDDVAQHYLAKEGIYAVRRVKKSDMEKLAKATGAKIVTDLDDLTPSVLGEAETVEERKIGDDRMTFVMGCKNPKAVSILIRGGTDHVVSEVERALNDAIRVVAITKEDGKFLWGGGAVEAELAMRLAKYANSVGGREQLAIEAFAKALEIIPRTLAENAGIDPINTLIKLKAEHEKGRISVGVDLDNNGVGDMKAKGVVDPLRVKTHALESAVEVATMILRIDDVIASKKSTPPSGQGGQGQGMPGGGMPEY
notes: Thermoplasma acidophilum thermosome α subunit, NCBI CAC12109; site-directed mutant of construct aK144HTTherm; also called Asp94α to a glutamate residue; not shown: His6, internal (intraloop), kept

How the values were obtained:
[1] = biological target: T1, Ta RhaD (rhamnose dehydrogenase); test: dehydrogenase activity, NADPH absorbance at […] nm; format: biochemical; details: NADP+ co-substrate, 55 °C; read-out of refolding assay
[2] = biological target: the molecule itself; test: SEC + native gel or EMSA; α (intraloop His6) and β co-expressed in E. coli; complexes purified to homogeneity as in ref. 29; integrity by Superose 6 Increase SEC (main peak ≅950 kDa) and native-PAGE 3–12% (≅1 MDa); subunit composition by Tris-Acetate SDS-PAGE (7%) of the purified proteins

Molecule	dehydrogenase activity, NADPH absorbance at 340 nm [1]	stoichiometry N [2]
C[C@@H]1OC(O)[C@H](O)[C@H](O)[C@H]1O (stereo partly drawn) [L-rhamnose]	RhaD catalyzes the NADP^+-dependent oxidation of L-rhamnose	–
B1	–	16

Reference: paper PMC5983026, “Intraring allostery controls the function and assembly of a hetero-oligomeric class II chaperonin” (The FASEB Journal, 2018)
